From patent US12624004B2 (Fudan University, priority 2019, dated 2026) come the findings set out here.

For one assay, the system named is Female mice. Briefly: In vivo hot plate method analgesia test. Conditions: intraperitoneal; for % MPE @ 10 mg/kg: Table 3-2, hot plate 55° C.; for Maximum percentage effective analgesia (% MPE): Table 5-2, hot plate 55° C.; for % MPE @ 10 mg/kg / Maximum percentage effective analgesia (% MPE): 10 mg/kg dose; for ED50: Mus musculus, ip; for Maximum percentage effective analgesic (% MPE): Table 1-2, hot plate 55° C. In short, it runs like this: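 Female mice (~20 g) on a 55° C hot plate, hindpaw response latency as pain threshold (pre-screen 5–30 s, 60 s cut-off). Latencies at 15, 30, 60 and 120 min after intraperitoneal dosing. %MPE = (post−pre latency)/(60−pre)×100, ED50 derived from %MPE.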
For orientation: Hot-plate and tail-flick tests time the reaction to a heat stimulus.

A further assay addresses T1, κ opioid receptor (Homo sapiens, UniProt P41145).
T1 construct: expressed in transfected cells; host or cells: CHO cells (membranes)
In words: Competition binding assay on membranes of CHO cells expressing κ opioid receptor, [3H]-labeled ligand. As to conditions: for inhibition at 1 µM / inhibition at 10 µM: 0.5 h; for Ki: read-out: κOR Ki; for inhibition at 10 µM: Table 1-1, 10 μM concentration of compound. The essentials:
(§1)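 CHO membranes (20–30 μg protein) incubated with [3H]-labeled ligand at 1–2 nM and test compounds, 30 min at 30° C; nonspecific binding with 1 μM corresponding ligand. Filtered on GF/C, washed with 50 mM Tris-HCl pH 7.4, scintillation-counted. IC50 converted to Ki by Ki=IC50/(1+[L]/Kd).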

The next assay addresses T2, δ opioid receptor (Homo sapiens, UniProt P41143).
T2 construct: expressed in transfected cells; host or cells: CHO cells (membranes)
In words: Competition binding assay on membranes of CHO cells expressing δ opioid receptor, [3H]-labeled ligand. Conditions: for inhibition at 1 µM / inhibition at 10 µM: 0.5 h; for Ki: read-out: δOR Ki; for inhibition at 10 µM: Table 1-1, 10 μM concentration of compound. In short, it runs like this:
as §1

The target in the next assay is T3, μ opioid receptor (Homo sapiens, UniProt P35372).
T3 construct: expressed in transfected cells; host or cells: CHO cells (membranes)
Briefly: Competition binding assay on membranes of CHO cells expressing μ opioid receptor, [3H]-labeled ligand. As to conditions: for Ki: read-out: μOR Ki; for inhibition at 10 µM: Table 1-1, 10 μM concentration of compound, mean ± SD of three measurements. In short, it runs like this:
as §1

The mark [1] stands for this setting: Table 3-1, 1 μM concentration of compounds, read-out: κOR Binding rate (%).
Where [2] appears, read: Table 3-1, 1 μM concentration of compounds, read-out: δOR Binding rate (%).
The mark [3] stands for this setting: Table 3-1, 1 μM concentration of compounds, read-out: μOR Binding rate (%).
[4] abbreviates: Table 5-1, 1 μM concentration of compound, read-out: κOR Combination rate (%).
Setting [5] is: Table 5-1, 1 μM concentration of compound, read-out: δOR Combination rate (%).
[6] abbreviates: 0.5 h, Table 5-1, 1 μM concentration of compound, read-out: μOR Combination rate (%).
[7] abbreviates: Table 2-1, 1 μM concentration of compound, read-out: δOR Binding rate (%).

The Ki is the equilibrium dissociation constant of an inhibitor or competing ligand from its target. As usually defined, the ED50 is the midpoint of the dose-response relation. Lower therefore signals greater potency.

The structures appear in SMILES notation. Structures can show the parent of a compound that is named as a salt. Where two headings read alike, the source gives them in different places.

Turning to `COc1cccc(C2(O)CCN(C(=O)Nc3ccc(Cl)cc3)CC2CN(C)C)c1.Cl` (stereo not drawn) [FWBF4, N-(4-Chlorophenyl)-3-((dimethylamino)methyl)-4-hydroxy-4-(3-methoxyphenyl)piperidine-1-carboxamide hydrochloride], the “% MPE @ 10 mg/kg” value in the assay with Female mice was 68.95%. Also, the inhibition at 1 µM at κ opioid receptor (setting [1]) came out at 22.1 ± 10.7%; on δ opioid receptor (setting [2]), 0%; on μ opioid receptor (setting [3]), 48.8 ± 3.9%.
Regarding `COc1cccc(C2(O)CCN(C(=O)Cc3cccc(OC(F)(F)F)c3)CC2CN(C)C)c1.Cl` (stereo not drawn) [FWBE6, 1-(3-((Dimethylamino)methyl)-4-hydroxy-4-(3-methoxyphenyl)piperidin-1-yl)-2-(3-(trifluoromethoxy)phenyl)ethyl-1-one hydrochloride], the “Maximum percentage effective analgesia (% MPE)” value in the assay with Female mice was found to be 47%. Besides, the inhibition at 1 µM at κ opioid receptor (setting [4]) was 13.5 ± 0.6%; on δ opioid receptor (setting [5]) it was 13.2 ± 1%; at μ opioid receptor (setting [6]), 21.5 ± 0.1%.
Turning to `COc1cccc(C2(O)CCN(C(=O)Cc3cccc4ccccc34)CC2CN(C)C)c1.Cl` (stereo not drawn) [FWBE16, 1-(3-((Dimethylamino)methyl)-4-hydroxy-4-(3-methoxyphenyl)piperidin-1-yl)-2-(naphthalen-1-yl)ethyl-1-one hydrochloride], the “Maximum percentage effective analgesia (% MPE)” value in the assay on Female mice was 78.72%. Also, the Ki at κ opioid receptor (Table 5-1) was found to be 1.7 ± 0.379 µM; at δ opioid receptor (Table 5-1), 2.16 ± 0.072 µM; on μ opioid receptor (Table 5-1), 0.353 ± 0.0045 µM.
The molecule `COc1cccc(C2(O)CCN(S(=O)(=O)Cc3cccc(Cl)c3)CC2CN(C)C)c1.Cl` (stereo not drawn) [FWBH7, 1-((3-Chlorobenzyl)sulfonyl)-3-((dimethylamino)methyl)-4-(3-methoxyphenyl)piperidin-4-ol hydrochloride] showed an ED50 in the assay on Female mice (Table 2-2, hot plate) of 1.58 mg/kg. The inhibition at 1 µM at κ opioid receptor (Table 2-1, 1 μM concentration of compound, read-out: κOR Binding rate (%)) worked out at 0%; at δ opioid receptor (setting [7]), 28.8 ± 0.04%; on μ opioid receptor (Table 2-1, 1 μM concentration of compound, read-out: μOR Binding rate (%)) it was 21.9 ± 2.4%.
`COc1cccc(C2(O)CCN(C(=O)C(C)(C)c3ccccc3)CC2CN(C)C)c1.Cl` (stereo not drawn) [FWBE23, 1-(3-((Dimethylamino)methyl)-4-hydroxy-4-(3-methoxyphenyl)piperidin-1-yl)-2-methyl-2-phenylpropan-1-one hydrochloride]: the “Maximum percentage effective analgesia (% MPE)” value with Female mice is 33.72%. Also, the Ki is 0.0444 ± 0.00096 µM at κ opioid receptor (Table 5-1), 0.688 ± 0.54 µM on δ opioid receptor (Table 5-1) and 0.0526 ± 0.00383 µM at μ opioid receptor (Table 5-1).
For `COc1cccc(C2(O)CCN(C(=O)c3cc(F)c(F)cc3F)CC2CN(C)C)c1.Cl` (stereo not drawn) [FWBE5, (3-((Dimethylamino)methyl)-4-hydroxy-4-(3-methoxyphenyl)piperidin-1-yl)(2,4,5-trifluorophenyl)methanone hydrochloride], the “Maximum percentage effective analgesia (% MPE)” value in the assay on Female mice is reported as 3%. The inhibition at 1 µM at κ opioid receptor (setting [4]) stood at 23 ± 5.9%; on δ opioid receptor (setting [5]) it was 7 ± 6.3%; on μ opioid receptor (setting [6]) it was 13 ± 0.2%.
On the same counts, the results for `COc1cccc(C2(O)CCN(C(=O)Cc3ccc(Cl)cc3)CC2CN(C)C)c1.Cl` (stereo not drawn) [FWBE19, 2-(4-Chlorophenyl)-1-(3-((dimethylamino)methyl)-4-hydroxy-4-(3-methoxyphenyl)piperidin-1-yl)ethyl-1-one hydrochloride] are 73.98%, 39.4 ± 4.5%, 0% and 25.2 ± 5.2%.
With `COc1cccc(C2(O)CCN(S(=O)(=O)C[C@@]34CC[C@@H](CC3O)C4(C)C)CC2CN(C)C)c1` (stereo partly drawn) [FWBH26, 3-((Dimethylamino)methyl)-1-((((1R,4S)-2-hydroxy-7,7-dimethylbicyclo[2.2.1]hept-1-yl)methyl)sulfonic acid acyl)-4-(3-methoxyphenyl)piperidin-4-ol hydrochlorid, hydrochloride], the “% MPE (5 mg/kg)” value with Female mice (Table 2-2, hot plate 55° C., 5 mg/kg dose) came to 44.91%. Also, the Ki at κ opioid receptor (Table 2-1) was found to be 0.0082 ± 0.0031 µM; at μ opioid receptor (Table 2-1), 0.0115 ± 0.0016 µM. Besides, on δ opioid receptor (setting [7]), the inhibition at 1 µM is 9.15 ± 1.92%.
For `COc1cccc(C2(O)CCN(C(=O)Nc3ccccc3)CC2CN(C)C)c1.Cl` (stereo not drawn) [FWBF1, 3-((Dimethylamino)methyl)-4-hydroxy-4-(3-methoxyphenyl)-N-phenylpiperidine-1-carboxamide hydrochloride], it took a dose of 2.75 mg/kg to reach the 50% effect level in the assay on Female mice (Table 3-2, hot plate) (ED50). The Ki at κ opioid receptor (Table 3-1) was determined as 0.0491 ± 0.0069 µM; at δ opioid receptor (Table 3-1) it was 0.849 ± 0.0966 µM; on μ opioid receptor (Table 3-1), 0.0073 ± 0.0005 µM.
Regarding `COc1cccc(C2(O)CCC(N(C)S(=O)(=O)c3cccc(Cl)c3)CC2CN(C)C)c1.Cl` (stereo not drawn) [3-Chloro-N-(3-((dimethylamino)methyl)-4-hydroxy-4-(methoxyphenyl)cyclohexyl)-N-methylbenzenesulfonamide hydrochloride], in the assay on Female mice (5 mg/kg dose), the “Maximum percentage effective analgesic (% MPE)” value is reported as 20.2%. The inhibition at 10 µM was 66.6 ± 4.8% on κ opioid receptor (read-out: κOR Binding rate (%)), 13.8 ± 3% on δ opioid receptor (read-out: δOR Binding rate (%)) and 90 ± 2% on μ opioid receptor (read-out: μOR Binding rate (%)).
On the same counts, the results for `COc1cccc(C2(O)CCC(N(C)S(=O)(=O)c3cccs3)CC2CN(C)C)c1.Cl` (stereo not drawn) [N-(3-((Dimethylamino)methyl)-4-hydroxy-4-(3-methoxyphenyl)cyclohexyl)-N-methylthiophene-2-sulfonamide hydrochloride] are 14.3%, 51.4 ± 7.5%, 0% and 62 ± 6.8%.
On the same counts, the results for `COc1cccc(C2(O)CCC(N(C)S(=O)(=O)c3ccccc3)CC2CN(C)C)c1.Cl` (stereo not drawn) [N-(3-((Dimethylamino)methyl)-4-hydroxy-4-(3-methoxyphenyl)cyclohexyl)-N-methylbenzenesulfonamide hydrochloride] are 15.8%, 46.7 ± 9.2%, 0% and 86.7 ± 1.6%.
On to `COC(=O)c1ccsc1NC(=O)N1CCC(O)(c2cccc(OC)c2)C(CN(C)C)C1` (stereo not drawn) [FWBF18, Methyl 2-(3-((dimethylamino)methyl)-4-hydroxy-4-(3-methoxyphenyl)piperidine-1-carboxamide) thiophene-3-carboxylate hydrochloride], for which the “% MPE @ 10 mg/kg” value in the assay with Female mice was 22.76%. Besides, the inhibition at 1 µM at κ opioid receptor (setting [1]) is 9.2 ± 3.1%; at δ opioid receptor (setting [2]) it was 16 ± 12.4%; on μ opioid receptor (setting [3]) it was 2.3%.
For `COc1cccc(C2(O)CCN(C(=O)C3(c4ccccc4)CCCC3)CC2CN(C)C)c1.Cl` (stereo not drawn) [FWBE26, (3-((Dimethylamino)methyl)-4-hydroxy-4-(3-methoxyphenyl)piperidin-1-yl)(1-phenylcyclopentyl) methanone hydrochloride], in the assay with Female mice, the “Maximum percentage effective analgesia (% MPE)” value amounted to 52.96%. The Ki is 0.0326 ± 0.00435 µM at κ opioid receptor (Table 5-1), 1.64 ± 1.16 µM on δ opioid receptor (Table 5-1) and 0.07372 ± 0.00032 µM at μ opioid receptor (Table 5-1).
For `COc1cccc(C2(O)CCN(C(=O)Nc3ccc4ccccc4c3)CC2CN(C)C)c1` (stereo not drawn) [FWBF11, 3-((Dimethylamino)methyl)-4-hydroxy-4-(3-methoxyphenyl)-N-(naphthalen-2-yl)piperidine-1-carboxamide hydrochloride], in the assay on Female mice, the “% MPE @ 10 mg/kg” value was determined as 4.41%. The inhibition at 1 µM at κ opioid receptor (setting [1]) was determined as 3.9%; at δ opioid receptor (setting [2]), 0%; on μ opioid receptor (setting [3]) it was 0.5%.
For the molecule `COc1cccc(C2(O)CCN(C(=O)Cn3cnnn3)CC2CN(C)C)c1.Cl` (stereo not drawn) [FWBE7, 1-(3-((Dimethylamino)methyl)-4-hydroxy-4-(3-methoxyphenyl)piperidin-1-yl)-2-(1H-tetrazol-1-yl)ethyl-1-one hydrochloride], the “Maximum percentage effective analgesia (% MPE)” value with Female mice is on record as 12.0%. Besides, the results for the inhibition at 1 µM on κ opioid receptor (setting [4]), on δ opioid receptor (setting [5]) and at μ opioid receptor (setting [6]) were 22.9 ± 0.6%, 8.9 ± 2.4% and 0%, respectively.
Take `COc1cccc(C2(O)CCN(C(=O)Nc3ccc(F)c(F)c3)CC2CN(C)C)c1.Cl` (stereo not drawn) [FWBF8, N-(3,4-difluorophenyl)-3-((dimethylamino)methyl)-4-hydroxy-4-(3-methoxyphenyl)piperidine-1-carboxamide hydrochloride]: the “% MPE @ 10 mg/kg” value with Female mice is listed as 21.76%. Further, the inhibition at 1 µM on κ opioid receptor (setting [1]) is 0%; on δ opioid receptor (setting [2]), 16.4 ± 10.6%; on μ opioid receptor (setting [3]) it was 13.6 ± 13.1%.
On the same counts, the results for `COc1cccc(C2(O)CCN(C(=O)Nc3ccc(Cl)c(Cl)c3)CC2CN(C)C)c1.Cl` (stereo not drawn) [FWBF5, N-(3,4-dichlorophenyl)-3-((dimethylamino)methyl)-4-hydroxy-4-(3-methoxyphenyl)piperidine-1-carboxamide hydrochloride] are 25.42%, 18.2 ± 1.9%, 0% and 46 ± 5.4%.
